# Test results reported in ChEMBL document CHEMBL1159231, “Cyathocaline, an Azafluorenone Alkaloid from Cyathocalyx zeylanica” (J Nat Prod, 1995).
# The source made the active and inactive calls. The rule behind the calls is not given here.
# Key:
# Saccharomyces cerevisiae [1] = assay: DNA damaging activity against wild type DNA repair-proficient yeast RS 188N (RAD+) assessed as drug level required to produce 12 mm zone of inhibition; type: functional
# Saccharomyces cerevisiae [2] = assay: DNA damaging activity against DNA repair-deficient yeast RS 321N mutant assessed as drug level required to produce 12 mm zone of inhibition; type: functional
# Saccharomyces cerevisiae [3] = assay: DNA damaging activity against DNA repair rad 52Y gene-deficient yeast RS 322YK mutant assessed as drug level required to produce 12 mm zone of inhibition; type: functional
# A549 = assay: Cytotoxicity against human A549 cells; type: functional, cell-based
# Saccharomyces cerevisiae [4] = assay: DNA damaging activity against DNA repair rad6 gene-deficient yeast RS 167N mutant; type: functional, organism-based
smiles,measurement,setting,value
COc1c(O)cc2c(c1O)-c1nccc(C)c1C2=O [CYATHOCALINE],IC12,Saccharomyces cerevisiae [1],> 400 µg/mL
same,IC12,Saccharomyces cerevisiae [2],87 µg/mL
same,IC12,Saccharomyces cerevisiae [3],90 µg/mL
same,IC50,A549,8.5 µM
same,Activity,Saccharomyces cerevisiae [4],inactive
